Values of other authors, collected in US20060160088A1, “Diagnostics and therapeutics for diseases associated with g protein-coupled receptor 40 (gpr40)” (Bayer Healthcare AG, priority 2003, published 2006).

Molecular target: GPR40 (Homo sapiens, UniProt O14842)
Conditions: activation of GPR40; most potent fatty acid tested

Sequence of GPR40 (O14842 whole entry): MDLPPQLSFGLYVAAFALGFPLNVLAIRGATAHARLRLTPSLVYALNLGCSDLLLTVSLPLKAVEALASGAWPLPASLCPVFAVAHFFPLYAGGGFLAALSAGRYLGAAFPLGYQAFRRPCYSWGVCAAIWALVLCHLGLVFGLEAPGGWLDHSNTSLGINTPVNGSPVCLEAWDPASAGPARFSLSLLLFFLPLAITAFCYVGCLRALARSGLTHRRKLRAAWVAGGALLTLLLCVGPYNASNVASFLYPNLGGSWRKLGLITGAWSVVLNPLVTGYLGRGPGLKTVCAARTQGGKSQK

pEC(50): 5.7
Compound: CCCCCCCCC#CCC#CCC#CCCCC(=O)O [Eicosatriynoic acid]
